# Tested on: 435261-313-R-J1-PDC complex spheroid viability
# Test: Anticancer human tumor 435261-313-R-J1-PDC patient-derived colon adenocarcinoma cell line growth inhibition [GQUAD]
# Details: for IC50: curve of first compound; for viability, T/C: stronger effect = lower value
# Method in brief: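 Viability of tumor cells grown as complex spheroids with endothelial and stromal cells, exposed to drug combinations. Top concentration at or near clinical Cmax (else 10 microM), diluted in half-log increments.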
# [1] = second compound 0.0316 µM, first compound 0.0316 µM
# [2] = second compound 0.0316 µM, first compound 0.1 µM
# [3] = second compound 0.0316 µM, first compound 0.316 µM
# [4] = second compound 0.0316 µM, first compound 1 µM
# [5] = second compound 0.0316 µM, first compound 3.16 µM
# [6] = second compound 0.0316 µM, first compound 10 µM
# [7] = second compound 0.1 µM, first compound 0.0316 µM
# [8] = second compound 0.1 µM, first compound 0.1 µM
# [9] = second compound 0.1 µM, first compound 0.316 µM
# [10] = second compound 0.1 µM, first compound 1 µM
# [11] = second compound 0.1 µM, first compound 3.16 µM
# [12] = second compound 0.1 µM, first compound 10 µM
# [13] = second compound 0.316 µM, first compound 0.0316 µM
# [14] = second compound 0.316 µM, first compound 0.1 µM
# [15] = second compound 0.316 µM, first compound 0.316 µM
# [16] = second compound 0.316 µM, first compound 1 µM
# [17] = second compound 0.316 µM, first compound 3.16 µM
# [18] = second compound 0.316 µM, first compound 10 µM
# [19] = second compound 1 µM, first compound 0.0316 µM
# [20] = second compound 1 µM, first compound 0.1 µM
# [21] = second compound 1 µM, first compound 0.316 µM
# [22] = second compound 1 µM, first compound 1 µM
# [23] = second compound 1 µM, first compound 3.16 µM
# [24] = second compound 1 µM, first compound 10 µM
# [25] = second compound 3.16 µM, first compound 0.0316 µM
# [26] = second compound 3.16 µM, first compound 0.1 µM
# [27] = second compound 3.16 µM, first compound 0.316 µM
# [28] = second compound 3.16 µM, first compound 1 µM
# [29] = second compound 3.16 µM, first compound 3.16 µM
# [30] = second compound 3.16 µM, first compound 10 µM
# [31] = second compound 10 µM, first compound 0.0316 µM
# [32] = second compound 10 µM, first compound 0.1 µM
# [33] = second compound 10 µM, first compound 0.316 µM
# [34] = second compound 10 µM, first compound 1 µM
# [35] = second compound 10 µM, first compound 3.16 µM
# [36] = second compound 10 µM, first compound 10 µM
# 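Note: spheroids exposed to the agents for seven days before readout.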
# 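Throughout, for viability, T/C: percent of vehicle control viability with DMSO wells as 100%.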
structure (smiles),measurement,setting,value
Nc1ccn(C2OC(CO)C(O)C2(F)F)c(=O)n1 (stereo not drawn) + CN(C)c1ccc(Nc2c3ccc(NC(=O)CCN4CCCC4)cc3nc3cc(NC(=O)CCN4CCCC4)ccc23)cc1,IC50,second compound 0.0316 µM,> 10 µM
same,IC50,second compound 0.1 µM,> 10 µM
same,IC50,second compound 0.316 µM,> 10 µM
same,IC50,second compound 1 µM,> 10 µM
same,IC50,second compound 3.16 µM,2.84 µM
same,IC50,second compound 10 µM,< 0.0316 µM
same,"viability, T/C",[1],90.2%
same,"viability, T/C",[2],78.8%
same,"viability, T/C",[3],90%
same,"viability, T/C",[4],83%
same,"viability, T/C",[5],77.2%
same,"viability, T/C",[6],60.9%
same,"viability, T/C",[7],85.3%
same,"viability, T/C",[8],103%
same,"viability, T/C",[9],72.5%
same,"viability, T/C",[10],84.5%
same,"viability, T/C",[11],70.4%
same,"viability, T/C",[12],68.5%
same,"viability, T/C",[13],98.4%
same,"viability, T/C",[14],94.8%
same,"viability, T/C",[15],70.4%
same,"viability, T/C",[16],68.3%
same,"viability, T/C",[17],76.9%
same,"viability, T/C",[18],67.8%
same,"viability, T/C",[19],79.9%
same,"viability, T/C",[20],78.2%
same,"viability, T/C",[21],74.5%
same,"viability, T/C",[22],68.1%
same,"viability, T/C",[23],78.8%
same,"viability, T/C",[24],66.5%
same,"viability, T/C",[25],68.7%
same,"viability, T/C",[26],58%
same,"viability, T/C",[27],53.2%
same,"viability, T/C",[28],57.5%
same,"viability, T/C",[29],54%
same,"viability, T/C",[30],38.7%
same,"viability, T/C",[31],30.9%
same,"viability, T/C",[32],26.6%
same,"viability, T/C",[33],26.2%
same,"viability, T/C",[34],32.9%
same,"viability, T/C",[35],26.5%
same,"viability, T/C",[36],24.9%
C=CC(=O)N1CCN(c2nc(=O)n(-c3c(C)ccnc3C(C)C)c3nc(-c4c(O)cccc4F)c(F)cc23)C(C)C1 (stereo not drawn) + Cc1[nH]c2ccc(F)cc2c1-c1nc2c3cccnc3c3ncccc3c2[nH]1,IC50,second compound 0.0316 µM,> 10 µM
same,IC50,second compound 0.1 µM,> 10 µM
same,IC50,second compound 0.316 µM,> 10 µM
same,IC50,second compound 1 µM,> 10 µM
same,IC50,second compound 3.16 µM,< 0.0316 µM
same,IC50,second compound 10 µM,< 0.0316 µM
same,"viability, T/C",[1],98.7%
same,"viability, T/C",[2],69.3%
same,"viability, T/C",[3],116%
same,"viability, T/C",[4],126%
same,"viability, T/C",[5],127%
same,"viability, T/C",[6],83.8%
same,"viability, T/C",[7],85%
same,"viability, T/C",[8],131%
same,"viability, T/C",[9],92.8%
same,"viability, T/C",[10],109%
same,"viability, T/C",[11],129%
same,"viability, T/C",[12],97.8%
same,"viability, T/C",[13],97.6%
same,"viability, T/C",[14],106%
same,"viability, T/C",[15],88.7%
same,"viability, T/C",[16],73.9%
same,"viability, T/C",[17],122%
same,"viability, T/C",[18],104%
same,"viability, T/C",[19],78.4%
same,"viability, T/C",[20],84%
same,"viability, T/C",[21],74.2%
same,"viability, T/C",[22],71.2%
same,"viability, T/C",[23],61%
same,"viability, T/C",[24],80.4%
same,"viability, T/C",[25],41.5%
same,"viability, T/C",[26],27.6%
same,"viability, T/C",[27],28.1%
same,"viability, T/C",[28],42.5%
same,"viability, T/C",[29],54.2%
same,"viability, T/C",[30],32%
same,"viability, T/C",[31],22.4%
same,"viability, T/C",[32],24.8%
same,"viability, T/C",[33],24.8%
same,"viability, T/C",[34],16.2%
same,"viability, T/C",[35],28.3%
same,"viability, T/C",[36],22.4%
Cc1[nH]c2ccccc2c1CCNCc1ccc(/C=C/C(=O)NO)cc1 + Cc1[nH]c2ccc(F)cc2c1-c1nc2c3cccnc3c3ncccc3c2[nH]1,IC50,second compound 0.0316 µM,0.0979 µM
same,IC50,second compound 0.1 µM,0.105 µM
same,IC50,second compound 0.316 µM,0.0779 µM
same,IC50,second compound 1 µM,0.106 µM
same,IC50,second compound 3.16 µM,< 0.000999 µM
same,IC50,second compound 10 µM,< 0.000999 µM
same,"viability, T/C","second compound 0.0316 µM, first compound 0.000999 µM",86%
same,"viability, T/C","second compound 0.0316 µM, first compound 0.00316 µM",70.3%
same,"viability, T/C","second compound 0.0316 µM, first compound 0.00999 µM",77.2%
same,"viability, T/C",[1],98.1%
same,"viability, T/C","second compound 0.0316 µM, first compound 0.0999 µM",49.4%
same,"viability, T/C",[3],4.41%
same,"viability, T/C","second compound 0.1 µM, first compound 0.000999 µM",91.7%
same,"viability, T/C","second compound 0.1 µM, first compound 0.00316 µM",65.4%
same,"viability, T/C","second compound 0.1 µM, first compound 0.00999 µM",96.8%
same,"viability, T/C",[7],66.1%
same,"viability, T/C","second compound 0.1 µM, first compound 0.0999 µM",53.1%
same,"viability, T/C",[9],11.9%
same,"viability, T/C","second compound 0.316 µM, first compound 0.000999 µM",64.1%
same,"viability, T/C","second compound 0.316 µM, first compound 0.00316 µM",81.8%
same,"viability, T/C","second compound 0.316 µM, first compound 0.00999 µM",61.8%
same,"viability, T/C",[13],68.1%
same,"viability, T/C","second compound 0.316 µM, first compound 0.0999 µM",45.2%
same,"viability, T/C",[15],9.8%
same,"viability, T/C","second compound 1 µM, first compound 0.000999 µM",46.7%
same,"viability, T/C","second compound 1 µM, first compound 0.00316 µM",71.7%
same,"viability, T/C","second compound 1 µM, first compound 0.00999 µM",49.9%
same,"viability, T/C",[19],58.6%
same,"viability, T/C","second compound 1 µM, first compound 0.0999 µM",52.1%
same,"viability, T/C",[21],7.21%
same,"viability, T/C","second compound 3.16 µM, first compound 0.000999 µM",41.2%
same,"viability, T/C","second compound 3.16 µM, first compound 0.00316 µM",39.5%
same,"viability, T/C","second compound 3.16 µM, first compound 0.00999 µM",24.2%
same,"viability, T/C",[25],33.8%
same,"viability, T/C","second compound 3.16 µM, first compound 0.0999 µM",26%
same,"viability, T/C",[27],0.48%
same,"viability, T/C","second compound 10 µM, first compound 0.000999 µM",29.5%
same,"viability, T/C","second compound 10 µM, first compound 0.00316 µM",28.2%
same,"viability, T/C","second compound 10 µM, first compound 0.00999 µM",28.1%
same,"viability, T/C",[31],33.3%
same,"viability, T/C","second compound 10 µM, first compound 0.0999 µM",27.8%
same,"viability, T/C",[33],0.79%
CCCS(=O)(=O)Nc1ccc(F)c(C(=O)c2c[nH]c3ncc(-c4ccc(Cl)cc4)cc23)c1F + CN(C)c1ccc(Nc2c3ccc(NC(=O)CCN4CCCC4)cc3nc3cc(NC(=O)CCN4CCCC4)ccc23)cc1,IC50,second compound 0.0316 µM,5.69 µM
same,IC50,second compound 0.1 µM,5.64 µM
same,IC50,second compound 0.316 µM,5.35 µM
same,IC50,second compound 1 µM,5.62 µM
same,IC50,second compound 3.16 µM,3.77 µM
same,IC50,second compound 10 µM,< 0.0316 µM
same,"viability, T/C",[1],123%
same,"viability, T/C",[2],110%
same,"viability, T/C",[3],143%
same,"viability, T/C",[4],123%
same,"viability, T/C",[5],85.6%
same,"viability, T/C",[6],15.8%
same,"viability, T/C",[7],84.3%
same,"viability, T/C",[8],110%
same,"viability, T/C",[9],120%
same,"viability, T/C",[10],92.3%
same,"viability, T/C",[11],81.6%
same,"viability, T/C",[12],19.6%
same,"viability, T/C",[13],124%
same,"viability, T/C",[14],94.6%
same,"viability, T/C",[15],92.1%
same,"viability, T/C",[16],128%
same,"viability, T/C",[17],76.1%
same,"viability, T/C",[18],19.1%
same,"viability, T/C",[19],77.3%
same,"viability, T/C",[20],90.7%
same,"viability, T/C",[21],105%
same,"viability, T/C",[22],92.5%
same,"viability, T/C",[23],77.7%
same,"viability, T/C",[24],22.1%
same,"viability, T/C",[25],82%
same,"viability, T/C",[26],53.6%
same,"viability, T/C",[27],74.7%
same,"viability, T/C",[28],112%
same,"viability, T/C",[29],57.1%
same,"viability, T/C",[30],10.5%
same,"viability, T/C",[31],45.5%
same,"viability, T/C",[32],54.3%
same,"viability, T/C",[33],33.9%
same,"viability, T/C",[34],34%
same,"viability, T/C",[35],33.8%
same,"viability, T/C",[36],7.35%
